Patent US20030072824A1, “Ume extract having medicinal effects and compositions containing the same” (priority 1998, published 2003)

Assay: Anti-oxidation action, DPPH radical trapping (Example 2)
Conditions: absorbance at 517 nm reduced to half, 30 minutes
Description: An ethanol solution of a stable radical 1,1-diphenyl-2-picryl-hydrazyl (DPPH) has an absorption at 517 nm in blue. When a radical trapping substance is added to this solution, the solution is discolored depending on the amount of the trapping substance added. This phenomenon was utilized in this method. First, 1 ml of ethanol, 1 ml of an ethanol solution of the extract (concentration: 0 to 100 μg/ml), 2 ml of 0.2 M acetic acid buffer solution (pH 5.5) and 1 ml of DPPH solution (2.0×10^−7 mol/ml ethanol solution) were mixed, and the mixture was allowed to stand for 30 minutes. Then, the absorbance of this mixed solution was determined at 517 nm. On the other hand, a mixture solution substituting 1 ml of ethanol for the DPPH solution was used as a blank, and the absorbance of this mixture solution was determined at 517 nm in the same manner as the above. Then, the amount of the extract required to reduce the absorbance to half was calculated, and this was used as an indicator of anti-oxidation. As comparative examples, α-tocopherol and green tea were used in place of the extract, and the anti-oxidation power thereof was investigated.

Cc1c(C)c2c(c(C)c1O)CC[C@@](C)(CCC[C@H](C)CCC[C@H](C)CCCC(C)C)O2 [α-tocopherol]
Anti-oxidation power: the amount required to trap 1.0 × 10^−7 mol DPPH: 21 μg
